The IC50 is the midpoint of a concentration-inhibition curve.

One series has as its target T1, human CYP17A1 (Homo sapiens, UniProt P05093).
T1 construct: bearing a truncation of the N-terminal helix; made in house
T1 sequence (P05093 with tags, fused parts or gaps limits assumed): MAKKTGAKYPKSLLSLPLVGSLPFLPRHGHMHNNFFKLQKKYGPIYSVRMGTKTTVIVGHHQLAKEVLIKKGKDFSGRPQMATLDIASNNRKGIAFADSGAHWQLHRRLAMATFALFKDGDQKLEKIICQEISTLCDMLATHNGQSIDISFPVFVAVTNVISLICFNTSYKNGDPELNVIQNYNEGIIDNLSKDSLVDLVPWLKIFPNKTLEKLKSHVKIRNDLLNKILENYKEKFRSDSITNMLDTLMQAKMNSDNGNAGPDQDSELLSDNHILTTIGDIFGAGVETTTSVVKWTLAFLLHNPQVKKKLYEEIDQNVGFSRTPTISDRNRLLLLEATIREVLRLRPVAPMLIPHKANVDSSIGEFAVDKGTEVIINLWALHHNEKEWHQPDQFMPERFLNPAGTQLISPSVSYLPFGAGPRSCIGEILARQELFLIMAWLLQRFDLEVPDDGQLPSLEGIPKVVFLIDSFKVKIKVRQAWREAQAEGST
Put plainly: 17α-hydroxypregnenolone 17,20-lyase inhibition with purified CYP17A1. Format: biochemical. To be noted: conversion of 17-OH-PRE into DHEA, 1.2 μM 17α-hydroxypregnenolone; mean over 3 measurements ± standard error. How it is done:
Purified cytochrome P450 17A1 (50 nmol) was incubated with truncated human cytochrome P450 reductase[48] and rat cytochrome b5 in a 1:4:0 or 1:4:4 ratio for hydroxylase and 17,20-lyase reactions, respectively. […] Reactions were initiated upon addition of 25 mM NADPH as the electron source. The hydroxylated product was quantified after HPLC using an UV detector and analyzed as previously published. The 17,20-lyase assay was performed similarly substituting 1.2 μM of 17α-hydroxypregnenolone as the substrate and inhibitor concentrations of 0–500 nM. The dehydroepiandrosterone product was quantitated using a coupled GC/MS method.

The test system of a further series is H295R cell line. Put plainly: H295R steroid hormone synthesis assay, production of steroidal hormones. As to conditions: for IC50: Homo sapiens, NCI-H295R. Format: cell-based, human. How it is done:
(§1) The H295R steroid hormone synthesis assay was performed according to the OECD validation guideline. Cells were cultured in DMEM/F12 media supplemented with 1% ITS-premix and 2.5% Nu-serum at 37 °C with a 5% CO2 atmosphere. The cells were only used for experiments between passage […]. During exposure experiments, cells were grown in 24 well plates with a density of 3 × 10^5 cells/mL. […] To avoid interference from low levels of steroid hormones present in the Nu-serum, the exposure experiment was conducted with serum-free media. Each compound was tested at a minimum of seven concentration levels using three or more replicates and the experiment was repeated on two different days (n = 6–15). On each test plate a solvent control (SC) (medium with 0.1% DMSO) was included in triplicate and the maximal concentration of DMSO in the cell medium was 0.1%[49]. After 48 hours of incubation in presence of the test compounds, 950 μL of the medium was carefully removed and internal standards (50 μl of 0.1 μg/μl solution containing deuterated steroid analogues) were added. Samples were stored at −20 °C for later analysis.
Steroid extraction and clean-up were performed by double protein precipitation. First, 900 μL of cold acetonitrile were added to the samples, which were then vortexed and centrifuged at ~9500 × g for 10 minutes. Second, 900 μL cold methanol was added to the supernatant and the mixture was vortexed and centrifuged at 1500 × g for 10 minutes. Finally, the supernatant was collected and concentrated to ~1 mL under a gentle stream of nitrogen at 60 °C.
For on-line solid phase extraction (SPE) of steroids, a total of 100 μL was injected on a binary 1290 Agilent Infinity Series system and a binary 1100 Agilent HPLC pump were used in combination (Agilent Technologies, Palo Alto, CA, USA). For online clean-up, a C18 enrichment column (μbondapak® C18, 3.9 × 20 mm, 10 μm, Waters) was used. The enrichment column was connected to the autosampler through the TTC switching valve (two positions, 6 ports). Between the autosampler and the TTC switching valve a 0.3 μm in-line filter (1290 infinity in-line filter, Agilent) was installed. Separation of steroid hormones was performed using a C18 analytical column (Kinetex, 2.6 μm C18 100 Å, 75 × 2.1 mm, Phenomenex, USA). An isocratic flow of 1 mL/min H2O:methanol:formic acid at 90:10:0.1 (v/v/v) was generated by the 1100 pump which was connected to the autosampler. The 1290 pump performed a gradient elution with a flow rate of 0.3 mL which was connected to the TTC switching valve. Mobile phase A and B were composed of H2O with 0.1% formic acid (v/v) and pure methanol, respectively. The elution gradient was maintained at 10% B for the first 2 min, changed to 10.0–30.0% from 2.0 to 2.2 min, 30.0–60.0% from 2.2 to 8.0 min, maintained at 60.0% from 8.0 to 10.0 min, increased to 60.0–85.0% from 10.0 to 12.30 min, 85.0–99.5% from 12.3 to 12.5 min and held at 99.5% from 12.5 to 14.8 min, before re-equilibrating the column until 16 minutes.
For detection, an AB SCIEX 4500 QTRAP mass spectrometer (Applied Biosystems, Foster City, CA, USA) equipped with an atmospheric pressure chemical ionization (APCI) Turbo V source was used. Multiple reaction monitoring (MRM) was performed in positive mode during the analysis with a targeted scan time of 0.8 sec. Nitrogen was applied as curtain, collision, and ion source gases.

A further series deals with H295R cells. Put plainly: Cell viability, resazurin assay. It counts as cell-based, human. The source says: Cell viability was confirmed with the resazurin assay, as described by Nielsen et al.[50].
A general note: The colour change of resazurin is a common sign of viable cells or microbes.

Series [1] can be described thus: Precipitation of compound in H295R exposure medium. It counts as physicochemical. As to conditions: H295R assay medium, 0.1% DMSO. How it is done:
This cellular assay was also used to evaluate inhibitor selectivity.
as §1

[2] abbreviates: H295R, progestagens, EC200 ± standard error.
[3] abbreviates: H295R, androgens, read-out: AN IC50.
Setting [4] is: H295R, androgens, read-out: DHEA IC50.
Setting [5] is: H295R, androgens, read-out: TS IC50.
Setting [6] is: H295R, corticosteroids, read-out: 11deoxy-COR IC50.
[7] abbreviates: H295R, corticosteroids, read-out: COR IC50.
Setting [8] is: H295R, corticosteroids, read-out: CORNE IC50.
Where [9] appears, read: H295R, estrogens, read-out: E1 IC50.
[10] abbreviates: H295R, estrogens, read-out: E-E2 IC50.
Setting [11] is: H295R, progestagens, mean over 6 to 15 measurements ± standard error, read-out: PREG IC50.
Setting [12] is: H295R, progestagens, read-out: 17OH-PREG IC50.
[13] abbreviates: H295R, progestagens, read-out: 17OH-PROG IC50.
[14] abbreviates: H295R, corticosteroids, read-out: 11deoxy-COS IC50.

Like-named read-outs stand apart in the source and are kept apart here.

`C[C@]12CC[C@H](O)CC1=CC[C@@H]1[C@@H]2CC[C@]2(C)C(c3cccnc3)=CC[C@@H]12` [abiraterone, reference compound]: the concentration for half-maximal inhibition (IC50) was found to be 36 ± 2 nM on human CYP17A1; 0.5 nM in the series with H295R cell line (setting [3]); 1.8 ± 0.1 nM in the series on H295R cell line (setting [4]); 0.2 nM in the series with H295R cell line (setting [5]); 5.3 ± 0.1 nM in the series with H295R cell line (setting [6]); 5 ± 0.4 nM in the series with H295R cell line (setting [7]). The IC50 in the series with H295R cell line (setting [8]) turned out to be 2.5 ± 0.1 nM; with H295R cell line (setting [9]) it was 0.8 ± 0.1 nM; in the series on H295R cell line (setting [10]) it was 408 ± 60 nM; in the series with H295R cell line (setting [11]), 5.9 ± 0.5 nM; in the series on H295R cell line (H295R, progestagens, mean over 6 to 15 measurements ± standard error, read-out: PROG IC50), 181 ± 5 nM; with H295R cell line (setting [12]), 9.7 ± 0.3 nM. Also, the IC50 in the series on H295R cell line (setting [13]) was 6.3 ± 0.2 nM; with H295R cell line (H295R, calculated on low concentrations of abiraterone (first part of the Gaussian-like curve), read-out: 11deoxy-COS IC50) it was 2.6 ± 0.5 nM; in the series with H295R cell line (H295R, calculated on low concentrations of abiraterone (first part of the Gaussian-like curve), read-out: COS IC50), 2.9 ± 0.5 nM; in the series with H295R cell line (H295R, calculated using high concentrations of abiraterone (second part of the Gaussian-like curve), read-out: 11deoxy-COS IC50) it was 240 ± 20 nM. Further, the “PREG EC200” value in the series with H295R cell line (setting [2]) was 7.3 ± 0.3 nM. Besides, the “PROG EC200” value with H295R cell line (setting [2]) amounted to 1.0 ± 0.1 nM. In addition, the “Concentration at which cells were not viable” value with H295R cells was determined as 10 µM.
In the case of `Cc1ccc(-c2csc(-c3cccnc3)n2)c(C)c1` [Compound 1], the IC50 was 500 ± 90 nM at human CYP17A1; 300 to 1200 nM in the series on H295R cell line (H295R cells, read-out: IC50 values for progestagens and corticosteroids (range)); 68 ± 2 nM with H295R cell line (setting [3]); 94 ± 30 nM in the series on H295R cell line (setting [4]); 52 ± 2 nM with H295R cell line (setting [5]); 480 ± 10 nM with H295R cell line (setting [6]). The concentration for half-maximal inhibition (IC50) was 310 ± 60 nM in the series on H295R cell line (setting [14]); 1200 ± 100 nM in the series on H295R cell line (setting [7]); 700 ± 100 nM in the series with H295R cell line (setting [8]); 220 ± 10 nM in the series with H295R cell line (setting [9]); 235 ± 6 nM in the series with H295R cell line (setting [10]); 390 ± 70 nM with H295R cell line (setting [11]). Besides, the IC50 in the series with H295R cell line (setting [12]) came to 830 ± 80 nM; in the series on H295R cell line (setting [13]), 800 ± 200 nM. Also, the “Effect on the CYP17A1 substrates pregnenolone and progesterone” value in the series on H295R cell line (H295R cells) is “dose-dependent increases”. In the series on H295R cell line (setting [2]), the “PREG EC200” value came to 500 ± 70 nM. Also, the “PROG EC200” value in the series on H295R cell line (setting [2]) was 146 ± 7 nM. Besides, the “11deoxy-COS EC200” value in the series with H295R cell line (H295R, EC200 ± standard error) stood at 146 ± 4 nM. Also, the “COS EC200” value in the series with H295R cell line (H295R, EC200 ± standard error) stood at 56 ± 1 nM. The “Concentration at which precipitation was observed” value in series [1] is on record as “around 10 μM”.
As to `CCCn1nnc2cc(-c3cc(-c4ccncc4)c(C#N)c(N)n3)ccc21` [Compound 2], the IC50 on human CYP17A1 is 110 ± 20 nM; in the series with H295R cell line (setting [3]), 4.3 ± 0.1 nM; in the series on H295R cell line (setting [4]), 7.4 ± 0.1 nM; in the series with H295R cell line (setting [5]), 3.3 ± 0.2 nM; with H295R cell line (setting [6]) it was 54 ± 5 nM; in the series on H295R cell line (setting [14]), 23.8 ± 0.9 nM. In addition, the IC50 was 36 ± 4 nM in the series with H295R cell line (setting [7]); 23 ± 1 nM with H295R cell line (setting [8]); 36 ± 4 nM with H295R cell line (H295R, corticosteroids, read-out: COS IC50); 19 ± 3 nM with H295R cell line (setting [9]); 50 ± 10 nM in the series on H295R cell line (setting [10]); 15 ± 3 nM with H295R cell line (setting [11]). The results for the IC50 in the series on H295R cell line (setting [12]) and with H295R cell line (setting [13]) were 52 ± 4 nM and 20 ± 1 nM, respectively. In addition, the “Effect on the CYP17A1 substrates pregnenolone and progesterone” value in the series with H295R cell line (H295R cells) is given as “dose-dependent increases”. Further, the “PREG EC200” value in the series on H295R cell line (setting [2]) worked out at 19 ± 4 nM. Besides, in the series with H295R cell line (setting [2]), the “PROG EC200” value was 32 ± 4 nM. In addition, the “Concentration at which precipitation was observed” value in series [1] is 60 µM.

Values taken from publication PMC4942611, “Promising Tools in Prostate Cancer Research: Selective Non-Steroidal Cytochrome P450 17A1 Inhibitors” (Scientific Reports, 2016).
